From EP0442744A2, “Treatment of viral disease by glycosides” (TSUMURA & CO., priority 1990, dated 1991) come the findings set out here.

The test system of one data set is Herpes simplex virus. In words: Herpes virus inhibition experiment in FL cells (polykaryotic giant cell count). It is filed as cell-based. The settings on record: for minimal effective concentration: minimum concentration showing no polykaryotic giant cells after 24 hours, FL cells infected with Herpes simplex virus, read-out: Antivial activity.
Data set [1] in a line: Cytotoxicity in FL cells (experiment repeated without the virus). The conditions noted are these: human.
Procedure: (§1) When the experiment was started, the medium was removed from the dishes and a suspension (1 ml) containing Herpes simplex virus at the predetermined concentration in the medium was added to the dishes. The dishes were incubated in an incubator under the humidified air containing 5% CO₂ at 36°C for one hour to allow the adsorption of the viruses. Then the medium was removed and a fresh medium containing the test compounds was added. After 24 hours, the number of polykaryotic giant cells in each dish was counted and the minimum concentration showing no polykaryotic giant cells was taken as the antivirally active concentration to the herpes virus. The experiment was repeated without the virus and the minimum concentration at which cells died was taken as the cytotoxic concentration.
Another data set is described as follows: in vitro. The conditions noted are these: human, fl cells.

Each structure is given as a SMILES string.

Procedure for Herpes simplex virus: as §1
Procedure for in vitro: as §1

Take `C[C@H]1O[C@@H](O[C@H]2CC[C@]3(C=O)[C@H]4CC[C@]5(C)[C@@H](C6=CC(=O)OC6)CC[C@]5(O)[C@@H]4CC[C@]3(O)C2)C[C@H](O)[C@@H]1O` [Compound 5]: in the data set on Herpes simplex virus, the minimal effective concentration was found to be 0.03 µg/mL. In data set [1], the MCC amounted to 0.46 µg/mL.
Turning to `C[C@]12CC[C@H](O)C[C@H]1CC[C@@H]1[C@@H]2CC[C@]2(C)[C@@H](c3ccc(=O)oc3)CC[C@]12O` [Compound 7, 3,14-dihydroxybufa-20,22-dienolide], the Antivial activity in the data set with Herpes simplex virus was 8 ng/mL. In “in vitro”, this molecule registered an MCC at 24 h of 0.5 µg/mL.
Regarding `C[C@H]1O[C@@H](O[C@H]2[C@@H](O)C[C@H](O[C@H]3[C@@H](O)C[C@H](O[C@H]4CC[C@@]5(C)[C@H](CC[C@@H]6[C@@H]5CC[C@]5(C)[C@@H](C7=CC(=O)OC7)CC[C@]65O)C4)O[C@@H]3C)O[C@@H]2C)C[C@H](O)[C@@H]1O` [Compound 1, 3-[(O-2,6-dideoxy-β-D-ribo-hexopranoxyl-(1→4)-O-2,6-dideoxy-β-D-ribo-hexopyranosyl-(1→4)-2,6-dideoxy-β-D-ribo-hexopyranosyl)-oxy]-14-hydroxycard-(20)22-enolide], the minimal effective concentration in the data set on Herpes simplex virus is 0.025 µg/mL. Besides, the MCC in data set [1] was 0.48 µg/mL.
For `C[C@H]1O[C@@H](O[C@H]2[C@@H](O)C[C@H](O[C@H]3[C@@H](O)C[C@H](O[C@H]4CC[C@@]5(C)[C@H](CC[C@@H]6[C@@H]5C[C@@H](O)[C@]5(C)[C@@H](C7=CC(=O)OC7)CC[C@]65O)C4)O[C@@H]3C)O[C@@H]2C)C[C@H](O)[C@@H]1O` [Compound 2, 3-[(O-2,6-dideoxy-β-D-ribo-hexopranoxyl-(1→4)-O-2,6-dideoxy-β-D-ribo-hexopyranosyl-(1→4)-2,6-dideoxy-β-D-ribo-hexopyranosyl)-oxy]-12,14-dihydroxycard-(20)22-enolide], in that order: 0.05 µg/mL and 0.48 µg/mL.
The corresponding values for `C[C@@H]1O[C@@H](O[C@H]2CC[C@]3(C=O)[C@H]4CC[C@]5(C)[C@@H](C6=CC(=O)OC6)CC[C@]5(O)[C@@H]4CC[C@]3(O)C2)[C@H](O)[C@H](O)[C@H]1O` [Compound 6, 3β-[(6-deoxy-α-L-mannopyranosyl)oxy]-5,14-dihydroxy-19-oxo-5β-card-20(22) enolide] are 0.025 µg/mL and 0.38 µg/mL.
The corresponding values for `C[C@@H]1O[C@@H](O[C@H]2C[C@@H](O)[C@]3(CO)[C@H]4[C@H](O)C[C@]5(C)[C@@H](C6=CC(=O)OC6)CC[C@]5(O)[C@@H]4CC[C@]3(O)C2)[C@H](O)[C@H](O)[C@H]1O` [Compound 4, 3-[(6-deoxy-α-L-mannopyranosyl)oxy]-1,5,11α, 14,19-pentahydroxycard-20(22) enolide] are 0.04 µg/mL and 0.46 µg/mL.
